Where two headings read alike, the source gives them in different places. No end group written: not given here.
Tests used:
[1] = system: Salmonella enteritidis IID 604; conditions: IID 604
[2] = system: Fusarium solani JCM11383; conditions: JCM11383
[3] = system: Bacillus subtilis NBRC3134; conditions: NBRC3134
[4] = system: Acinetobacter baumanni JCM6841; conditions: JCM6841
[5] = system: Staphylococcus aureus ATCC29213; assay: ATP Assay (viability at 3 hours), Table 6; assay type: cell-based; conditions: 3 h, 5 μg/mL
Protocol: (§1) Bacteria (Escherichia coli ATCC 25922, Pseudomonas aeruginosa ATCC 27853, Staphylococcus aureus ATCC29213, and Staphylococcus epidermidis JCM 2414) were inoculated to Mueller-Hinton broth: MHB or LB medium, and cultured at a temperature and period suited for each strain. From the thus obtained colonies, each strain was inoculated to a fresh liquid medium and cultured for 16 to 20 hours. Then an aliquot having a volume (10 to 50 μL) appropriate to each strain was inoculated to a fresh liquid medium and cultured for 4 to 6 hours, followed by the measurement of the absorbance at 600 nm. After comparing the turbidity with McFarland #0.5, the resultant was diluted with a medium. Each strain was added to about 10^5 CFU/mL (final concentration).
(§2) Each of the peptide solutions to be tested was diluted with the medium to obtain a solution of 10 μg/mL. As positive controls, tobramycin (TOB), oxacillin (OX) and meropenem (MEPM) were used. By dilution with sterilized purified water to 1.0 mg/mL, positive control-containing media having concentrations of […], respectively for TOB; 0.5, 0.12 and 0.06 μg/mL, respectively, for OX; and 1.0, 0.25, 0.12, 0.06, 0.03 and 0.008 μg/mL respectively, for MEPM, were prepared. To a 96-well microtiter plate, 0.1 mL of the inoculation solution and 0.1 mL of the peptide- or positive control-containing medium having the respective concentration were added, and cultured at 37° C. for 3 hours. The well not containing the sample was used as a negative control. After the culturing, ATP was measured using BacTiter-Glo Microbial Cell Viability Assay kit of PROMEGA, and compared with that in the negative control to obtain a relative value which was defined as a viability. The antibacterial activity was evaluated based on the viability at 3 hours later using ATP as an index.
(§3) The medium used in this test for bacteria was Mueller-Hinton broth. Independent experiments were carried out twice for each strain.

[6] = system: Escherichia coli ATCC 25922; assay: ATP Assay (viability at 3 hours), Table 6; assay type: cell-based; conditions: 3 h, 5 μg/mL
Protocol: as §1, §2, §3

[7] = system: Pseudomonas aeruginosa ATCC 27853; assay: ATP Assay (viability at 3 hours), Table 6; assay type: cell-based; conditions: 3 h, 5 μg/mL
Protocol: as §1, §2, §3

[8] = system: Trichophyton rubrum NBRC9185; conditions: NBRC9185
[9] = system: Trichophyton mentagrophytes NBRC6124; conditions: NBRC6124
[10] = system: Micrococcus luteus NBRC13867
[11] = system: Candida krusei NBRC1395; conditions: Table 4; two tests, first/second value where not identical
[12] = system: Fusobacterium nucleatum JCM 11025; conditions: Table 4; two tests, first/second value where not identical
[13] = system: Staphylococcus epidermidis JCM 2414; assay: microbe, parasite or virus in culture; assay type: cell-based
Protocol: (§4) Bacteria (Escherichia coli ATCC 25922, Pseudomonas aeruginosa ATCC 27853, Staphylococcus aureus ATCC29213, Klebsiella pneumoniae JCM 1662, Enterobacter cloacae JCM 1232, Enterobacter aerogenes JCM 1235 and Staphylococcus epidermidis JCM 2414) were inoculated to Mueller-Hinton broth: MHB or LB medium, and cultured at a temperature and period suited for each strain. From the thus obtained colonies, each strain was inoculated to a fresh liquid medium and cultured for 16 to 20 hours. Then an aliquot having a volume (10 to 50 appropriate to each strain was inoculated to a fresh liquid medium and cultured for 4 to 6 hours, followed by the measurement of the absorbance at 600 nm. After comparing the turbidity with McFarland #0.5, the resultant was diluted with a medium. Each strain was added to about 10^5 CFU/mL (final concentration). Each of the peptide solutions to be tested was diluted with MHB to obtain a solution of 128 μg/mL. […] As controls, tobramycin (TOB: aminoglucoside antibiotic), oxacillin (OX:β-lactam antibiotic), meropenem (MEPM: carbapenem antibiotic) and ciprofloxacin (new quinolone antibiotic) were used. […] To a 96-well microtiter plate, 0.1 mL of the inoculation solution and 0.1 mL of the peptide- or positive control-containing medium having the respective concentration were added, and cultured at 37° C. for 16 to 24 hours (or a time period suited for the growth of the respective strain). The well not containing the sample was used as a negative control. After the culturing, the growth was visually observed, and the minimum concentration at which the growth was inhibited was defined as the minimum growth inhibition concentration (MIC). The medium used in this test for bacteria was Mueller-Hinton broth. Independent experiments were carried out twice or more for each strain.

[14] = system: Staphylococcus aureus ATCC29213; assay: microbe, parasite or virus in culture; assay type: cell-based
Protocol: as §4

[15] = system: Escherichia coli ATCC 25922; assay: microbe, parasite or virus in culture; assay type: cell-based
Protocol: as §4

[16] = system: Pseudomonas aeruginosa ATCC 27853; assay: microbe, parasite or virus in culture; assay type: cell-based
Protocol: as §4

[17] = system: Actinobacillus actinomycetemcomitans JCM2434
[18] = system: Alternaria alternata JCM5800; conditions: JCM5800
[19] = system: Bacteroides fragilis JCM 11019; conditions: Table 4; two tests, first/second value where not identical
[20] = system: Streptococcus pyogenes JCM5674
[21] = system: Salmonella typhimurium JCM1652; conditions: Table 4; two tests, first/second value where not identical
[22] = system: Pseudomonas aeruginosa 8 (clinical strain); conditions: Table 4; clinical strain; first/second value where not identical
Protocol: as §1, with “ATCC29213, Klebsiella pneumoniae JCM 1662, Enterobacter cloacae JCM 1232, Enterobacter aerogenes JCM 1235” for “ATCC29213,”, “50” for “50 μL)”
(§5) Further, the antibacterial activities against the clinical strains collected and isolated from infected patients were also examined. The tests were carried out for two methicillin-resistant Staphylococcus (MRSA) (MRSA (i) and (ii)), two methicillin-sensitive Staphylococcus (MSSA) (MSSA (i) and (ii)), five Pseudomonas aeruginosa, Pseudomonas aeruginosa 1, Pseudomonas aeruginosa 6, Pseudomonas aeruginosa 8. Pseudomonas aeruginosa 9 and Pseudomonas aeruginosa 12, totally 9 clinical strains. The MRSA and MSSA clinical strains were tested by the same method as Staphylococcus aureus ATCC29213, and Pseudomonas clinical strains were tested by the same method as Pseudomonas aeruginosa ATCC 27853.
(§6) Each of the peptide solutions to be tested was diluted with MHB to obtain a solution of 128 μg/mL. This solution was serially diluted with the medium to prepare peptide-containing media having concentrations of 128, 64, 32, 16, 8.0, 4.0 and 2.0 μg/mL respectively. […] By dilution with sterilized purified water to 1.0 mg/mL, positive control-containing media having concentrations of 16, 8, 4, 2, 1.0, 0.25, 0.12 and 0.06 μg/mL, respectively for TOB; 0.5, 0.12 and 0.06 μg/mL, respectively, for OX; and 16, 8, 4, 2, 1.0, 0.25, 0.12, 0.06, 0.06, 0.03 and 0.008 μg/mL, respectively, for MEPM, were prepared.
(§7) To a 96-well microtiter plate, 0.1 mL of the inoculation solution and 0.1 mL of the peptide- or positive control-containing medium having the respective concentration were added, and cultured at 37° C. for 16 to 24 hours (or a time period suited for the growth of the respective strain). The well not containing the sample was used as a negative control. After the culturing, the growth was visually observed, and the minimum concentration at which the growth was inhibited was defined as the minimum growth inhibition concentration (MIC).
(§8) The medium used in this test for bacteria was Mueller-Hinton broth. Independent experiments were carried out twice or more for each strain.

[23] = system: Aspergillus niger NBRC 9455; conditions: Table 4; two tests, first/second value where not identical
[24] = system: Pseudomonas aeruginosa 6 (clinical strain); assay: microbe, parasite or virus in culture; conditions: Table 4; clinical strain; first/second value where not identical
Protocol: as §1, with “ATCC29213, Klebsiella pneumoniae JCM 1662, Enterobacter cloacae JCM 1232, Enterobacter aerogenes JCM 1235” for “ATCC29213,”, “50” for “50 μL)”
as §5, §6, §7, §8

[25] = system: Pseudomonas aeruginosa 1 (clinical strain); assay: microbe, parasite or virus in culture; conditions: Table 4; clinical strain; first/second value where not identical
Protocol: as §1, with “ATCC29213, Klebsiella pneumoniae JCM 1662, Enterobacter cloacae JCM 1232, Enterobacter aerogenes JCM 1235” for “ATCC29213,”, “50” for “50 μL)”
as §5, §6, §7, §8

[26] = system: Pseudomonas aeruginosa 12 (clinical strain); assay: microbe, parasite or virus in culture
Protocol: as §1, with “ATCC29213, Klebsiella pneumoniae JCM 1662, Enterobacter cloacae JCM 1232, Enterobacter aerogenes JCM 1235” for “ATCC29213,”, “50” for “50 μL)”
as §5, §6, §7, §8

[27] = system: Pseudomonas aeruginosa 9 (clinical strain); assay: microbe, parasite or virus in culture; conditions: Table 4; clinical strain; first/second value where not identical
Protocol: as §1, with “ATCC29213, Klebsiella pneumoniae JCM 1662, Enterobacter cloacae JCM 1232, Enterobacter aerogenes JCM 1235” for “ATCC29213,”, “50” for “50 μL)”
as §5, §6, §7, §8

[28] = system: Cryptococcus neoformans IFM 46660
[29] = system: Enterobacter aerogenes JCM 1235; assay: microbe, parasite or virus in culture; assay type: cell-based; conditions: Table 4; two tests, first/second value where not identical
Protocol: as §4

[30] = system: Klebsiella pneumoniae JCM 1662; assay: microbe, parasite or virus in culture; assay type: cell-based
Protocol: as §4

[31] = system: Enterobacter cloacae JCM 1232; assay type: cell-based; conditions: Table 4; two tests, first/second value where not identical
Protocol: as §4

[32] = system: Rhizopus oryzae NBRC 31005; conditions: NBRC 31005
[33] = Table 4, two tests, first/second value where not identical
[34] = Table 4, clinical strain, first/second value where not identical

Substance | Staphylococcus aureus ATP (viability, relative value to negative control) [5] | Escherichia coli ATP (viability, relative value to negative control) [6] | Pseudomonas aeruginosa ATP (viability, relative value to negative control) [7] | MIC Staphylococcus epidermidis ([13]; JCM 2414) [µg/mL] | MIC Staphylococcus aureus [14, 33] | MIC Escherichia coli [15, 33] | MIC Pseudomonas aeruginosa [16, 33] | MIC Pseudomonas aeruginosa 8 [22] | MIC Aspergillus niger [23] | MIC Pseudomonas aeruginosa 6 [24] | MIC Pseudomonas aeruginosa 1 [25] | MIC Pseudomonas aeruginosa 9 [27] | MIC Cryptococcus neoformans ([28]; IFM 46660) [µg/mL] | MIC Enterobacter aerogenes [29] | MIC Staphylococcus aureus ([14]; ATCC29213) [µg/mL] | MIC Klebsiella pneumoniae [30, 33] | MIC Pseudomonas aeruginosa ([16]; ATCC 27853) [µg/mL] | MIC Enterobacter cloacae [31] | MIC Rhizopus oryzae [32] [µg/mL] | MIC Pseudomonas aeruginosa 12 [26, 34] | other results
Ac-GRLKRMGKRLKRKIQKWARW-NH2 [SRP-18] | 2.0 | 1.7 | 1.5 | 8 | 8/16 | 8/16 | 4/8 |  |  |  |  |  |  |  |  |  |  |  |  |  | MIC Salmonella Enteritidis [1]: 2 µg/mL; MIC Fusarium solani [2]: 8 µg/mL; MIC Bacillus subtilis [3]: 2 µg/mL; MIC Acinetobacter baumanni [4]: 32 µg/mL; MIC Trichophyton rubrum [8]: 32 µg/mL; MIC Trichophyton mentagrophytes [9]: 16 µg/mL; MIC Micrococcus luteus [10]: 1 µg/mL; MIC Candida krusei [11]: 32/16; MIC Fusobacterium nucleatum [12]: 32/16; MIC Actinobacillus actinomycetemcomitans [17]: 64 µg/mL; MIC Alternaria alternata [18]: 32 µg/mL; MIC Bacteroides fragilis [19]: 64/32; MIC Streptococcus pyogenes [20]: 16 µg/mL; MIC Salmonella Typhimurium [21]: 4/2
LKLIFLHRLKRMRKRLKRKL-NH2 [SRP-11] | 0.3 | 3.8 | 0.8 | 8 |  | 32/64 |  | 16/32 | 8/32 | 16/32 | 16/32 | 16/32 | 2 | 32/64 | 16 | 64/128 | 16 | 128< mg/mL | 8 |  | MIC Pseudomonas aeruginosa 12 ([26]; 12 (clinical strain)): 16 µg/mL
MLKLIFLHRLKRMRKRLKRK-NH2 [SRP-10] | 0.2 | 2.4 | 0.9 | 8 |  | 32/64 | 16/32 | 64/128 | 8/16 | 32/128 | 16/64 | 64/128 | 2 | 16/128 | 16 | 64/128 |  | 64/128 | 8 | 16/32 | 
MLKLIFLHRLKRMRKRLKRKLR-NH2 [SRP-9] | 0.2 | 2.6 | 0.8 |  | 16/32 |  |  | 8/32 | 16/32 | 16/64 | 16/32 | 32/128 |  | 16/64 |  |  | 16 | 16/64 | 8 | 16/32 | MIC Cryptococcus neoformans [28, 33]: 1/2; MIC Staphylococcus epidermidis [13, 33]: 8/32; MIC Escherichia coli ([15]; ATCC 25922): 32 µg/mL; MIC Klebsiella pneumoniae ([30]; JCM 1662): 64 µg/mL

Reference: patent US8470765B2, “Polypeptides and antibacterial or antiseptic use of same” (AnGes MG, Inc., priority 2009, dated 2013)
